Data on 22 compounds can be found in PubChem BioAssay AID256 (DTP/NCI, 2004).

Each structure is given as a SMILES string. Several values for one entry are separate records, joined by “and”; a condition that tells them apart may be missing. Equal entries are not always repeated. Toxic doses and inconclusive results are not listed.

The test system of this assay is CD2F1 mice, L1210 leukemia ip, survival T/C. Kind of assay: NCI In Vivo Anticancer Drug Screen. Data for tumor model L1210 Leukemia (intraperitoneal) in CD2F1 (CDF1) mice. The following applies: higher = longer survival. The method, boiled down: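 Mice carrying a transplanted tumor received test compound or vehicle alone. The value is the measurement in the treated group divided by that in the vehicle-treated control group.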

Where [1] appears, read: endpoint: mean survival time, dose: 100.0 mg/kg/injection, schedule: Q04DX003 (ip), vehicle: saline with Tween-80.
The mark [2] stands for this setting: endpoint: mean survival time, dose: 100.0 mg/kg/injection, schedule: Q01DX009 (ip), vehicle: acetone.
Where [3] appears, read: endpoint: mean survival time, dose: 200.0 mg/kg/injection, schedule: Q01DX009 (ip), vehicle: acetone.
The mark [4] stands for this setting: endpoint: mean survival time, dose: 400.0 mg/kg/injection, schedule: Q01DX009 (ip), vehicle: acetone.
Setting [5] is: endpoint: mean survival time, dose: 200.0 mg/kg/injection, schedule: Q04DX003 (ip), vehicle: saline with Tween-80.
Where [6] appears, read: endpoint: mean survival time, dose: 400.0 mg/kg/injection, schedule: Q04DX003 (ip), vehicle: saline with Tween-80.
Setting [7] is: endpoint: mean survival time, dose: 100.0 mg/kg/injection, schedule: Q01DX009 (ip), vehicle: saline.
[8] abbreviates: endpoint: mean survival time, dose: 200.0 mg/kg/injection, schedule: Q01DX009 (ip), vehicle: saline.
The mark [9] stands for this setting: endpoint: mean survival time, dose: 400.0 mg/kg/injection, schedule: Q01DX009 (ip), vehicle: saline.
Setting [10] is: endpoint: mean survival time, dose: 100.0 mg/kg/injection, schedule: Q04DX003 (ip), vehicle: saline.
[11] abbreviates: endpoint: mean survival time, dose: 200.0 mg/kg/injection, schedule: Q04DX003 (ip), vehicle: saline.
The mark [12] stands for this setting: endpoint: mean survival time, dose: 400.0 mg/kg/injection, schedule: Q04DX003 (ip), vehicle: saline.
Where [13] appears, read: endpoint: mean survival time, dose: 25.0 mg/kg/injection, schedule: Q01DX009 (ip), vehicle: saline with Tween-80.
Where [14] appears, read: endpoint: mean survival time, dose: 50.0 mg/kg/injection, schedule: Q01DX009 (ip), vehicle: saline with Tween-80.
The mark [15] stands for this setting: endpoint: mean survival time, dose: 100.0 mg/kg/injection, schedule: Q01DX009 (ip), vehicle: saline with Tween-80.
Where [16] appears, read: endpoint: mean survival time, dose: 200.0 mg/kg/injection, schedule: Q01DX009 (ip), vehicle: saline with Tween-80.
[17] abbreviates: endpoint: mean survival time, dose: 100.0 mg/kg/injection, schedule: Q04DX002 (ip), vehicle: saline with Tween-80.
The mark [18] stands for this setting: endpoint: mean survival time, dose: 200.0 mg/kg/injection, schedule: Q04DX002 (ip), vehicle: saline with Tween-80.
The mark [19] stands for this setting: endpoint: mean survival time, dose: 400.0 mg/kg/injection, schedule: Q01DX009 (ip), vehicle: saline with Tween-80.

Consider `CC(C)Oc1ccc(N2C(=O)C(C)CNC2=S)cc1` (centres undefined), for which the T/C (endpoint: mean survival time, dose: 75.0 mg/kg/injection, schedule: Q01DX001 (ip), vehicle: other) is 96 % of control; the T/C (endpoint: mean survival time, dose: 150.0 mg/kg/injection, schedule: Q01DX001 (ip), vehicle: other) was 97 % of control; the T/C (endpoint: mean survival time, dose: 300.0 mg/kg/injection, schedule: Q01DX001 (ip), vehicle: other) was 96 % of control.
As to `N#C/C(=C\c1ccc([N+](=O)[O-])o1)[N+](=O)[O-]`, the T/C runs as follows: (endpoint: mean survival time, dose: 25.0 mg/kg/injection, schedule: Q04DX003 (ip), vehicle: saline with Tween-80) 104 % of control; (endpoint: mean survival time, dose: 50.0 mg/kg/injection, schedule: Q04DX003 (ip), vehicle: saline with Tween-80) 94 % of control; under setting [1], 97 % of control.
On to `O=C1c2ccccc2C(=O)N1CNc1cccc(NCN2C(=O)c3ccccc3C2=O)c1`, for which the T/C runs as follows: under setting [2], 98 % of control; under setting [3], 103 % of control; under setting [4], 93 % of control.
Regarding `CCOC(=O)CCC[P+](c1ccccc1)(c1ccccc1)c1ccccc1`, the T/C was 100 % of control under setting [1], 100 % of control under setting [5] and 98 % of control under setting [6].
Regarding `Oc1ccccc1/C=N\Nc1ccccc1`, the T/C by setting is: under setting [7], 98 % of control; under setting [8], 98 % of control; under setting [9], 102 % of control.
Take `COc1ccc(Cl)cc1N`: the T/C runs as follows: under setting [1], 94 % of control; under setting [5], 92 % of control; under setting [6], 96 % of control.
Regarding `Nc1ccc(S(=O)(=O)c2ccc(NCC(=O)O)cc2)cc1`, the T/C is 100 % of control under setting [10], 100 % of control under setting [11] and 100 % of control under setting [12].
`OCC1OC(n2cnc3c(NO)nc(NO)nc32)C(O)C1O` (centres undefined): the T/C was 115 % of control (endpoint: mean survival time, dose: 2.25 mg/kg/injection, schedule: Q01DX009 (ip), vehicle: saline); 116 % of control (endpoint: mean survival time, dose: 4.5 mg/kg/injection, schedule: Q01DX009 (ip), vehicle: saline); 116 % of control (endpoint: mean survival time, dose: 9.0 mg/kg/injection, schedule: Q01DX009 (ip), vehicle: saline); 122 % of control (endpoint: mean survival time, dose: 18.0 mg/kg/injection, schedule: Q01DX009 (ip), vehicle: saline); 192 % of control (endpoint: mean survival time, dose: 36.0 mg/kg/injection, schedule: Q01DX009 (ip), vehicle: saline); 178 % of control (endpoint: median survival time, dose: 36.0 mg/kg/injection, schedule: Q01DX009 (ip), vehicle: saline). Also, the T/C (endpoint: median survival time, dose: 54.0 mg/kg/injection, schedule: Q01DX009 (ip), vehicle: saline) was 188 % of control and the T/C (endpoint: median survival time, dose: 72.0 mg/kg/injection, schedule: Q01DX009 (ip), vehicle: saline) is 202 % of control.
In the case of `O=c1cc[nH]c2cc(Cl)ccc12`, the T/C (endpoint: mean survival time, dose: 100.0 mg/kg/injection, schedule: Q04DX003 (ip), vehicle: alcohol) is 89 % of control and the T/C (endpoint: mean survival time, dose: 200.0 mg/kg/injection, schedule: Q04DX003 (ip), vehicle: alcohol) was 96 % of control.
As for `NC(N)=NCCCCC(N)C(=O)O` (centres undefined), the T/C under setting [2] is 101 % of control; the T/C under setting [7] was 95 % of control; the T/C under setting [10] was 97 % of control; the T/C under setting [3] was 96 % of control; the T/C under setting [8] was 95 % of control; the T/C under setting [11] was 100 % of control. Further, the T/C runs as follows: under setting [4], 98 % of control; under setting [9], 95 % of control; under setting [12], 103 % of control.
`CCOC(=O)N(OCc1ccccc1)P(=O)(N1CC1(C)C)N1CC1(C)C` (centres undefined): the T/C was 95 % of control under setting [13], 93 % of control under setting [14] and 98 % of control under setting [15].
As to `O=S(=O)(O)O.[NH-]C1CCCCC1C1CCCCC1[NH-].[Pt+2]` (centres undefined), the T/C was 119 % of control (endpoint: mean survival time, dose: 3.12 mg/kg/injection, schedule: Q04DX003 (ip), vehicle: distilled water + Tween-80) and 156 % of control (endpoint: mean survival time, dose: 12.5 mg/kg/injection, schedule: Q04DX003 (ip), vehicle: distilled water + Tween-80).
`CCCCn1c(Cc2ccccc2)nc2c1C(=O)c1ccccc1C2=O`: the T/C was 103 % of control under setting [10], 101 % of control under setting [11] and 98 % of control under setting [12].
Consider `Nc1cccc(CCc2ccc(-c3nc4ncnc(N)c4[nH]3)cc2)c1`, for which the T/C is 86 % of control (endpoint: mean survival time, dose: 100.0 mg/kg/injection, schedule: Q01DX001 (ip), vehicle: saline with Tween-80); 88 % of control (endpoint: mean survival time, dose: 200.0 mg/kg/injection, schedule: Q01DX001 (ip), vehicle: saline with Tween-80); 93 % of control (endpoint: mean survival time, dose: 400.0 mg/kg/injection, schedule: Q01DX001 (ip), vehicle: saline with Tween-80).
Turning to `[Pt+2].[S-]c1ccccc1.[S-]c1ccccc1.c1ccc([PH+](c2ccccc2)c2ccccc2)cc1.c1ccc([PH+](c2ccccc2)c2ccccc2)cc1`, the T/C by setting is: (endpoint: mean survival time, dose: 3.13 mg/kg/injection, schedule: Q04DX003 (sc), vehicle: distilled water + Tween-80) 97 % of control; (endpoint: mean survival time, dose: 6.25 mg/kg/injection, schedule: Q04DX003 (sc), vehicle: distilled water + Tween-80) 110 % of control; (endpoint: mean survival time, dose: 12.5 mg/kg/injection, schedule: Q04DX003 (sc), vehicle: distilled water + Tween-80) 103 % of control; (endpoint: mean survival time, dose: 25.0 mg/kg/injection, schedule: Q04DX003 (sc), vehicle: distilled water + Tween-80) 97 % of control; (endpoint: mean survival time, dose: 50.0 mg/kg/injection, schedule: Q04DX003 (sc), vehicle: distilled water + Tween-80) 91 % of control; (endpoint: mean survival time, dose: 100.0 mg/kg/injection, schedule: Q04DX003 (sc), vehicle: distilled water + Tween-80) 89 % of control.
On to `COc1ccc(OC)c(NC(=O)OCC(F)(F)F)c1`, for which the T/C was 97 % of control under setting [14] and 103 % of control under setting [16].
As for `CCOC(=O)c1ccc(NC(=O)OCc2ccco2)cc1`, the T/C under setting [15] is 92 % of control and 98 % of control; the T/C under setting [17] is 88 % of control and 102 % of control; the T/C under setting [1] is 94 % of control; the T/C under setting [16] was 92 % of control and 100 % of control; the T/C under setting [18] was 86 % of control and 91 % of control; the T/C under setting [5] was 87 % of control. The T/C was 113 % of control and 96 % of control under setting [19]; 87 % of control and 88 % of control (endpoint: mean survival time, dose: 400.0 mg/kg/injection, schedule: Q04DX002 (ip), vehicle: saline with Tween-80); 89 % of control under setting [6].
Consider `C1CCC(C2CCCC[N-]2)[N-]C1.O=C(O)C1CCC[N-]1.[Cl][Pt]` (centres undefined), for which the T/C is 103 % of control (endpoint: median survival time, dose: 10.0 mg/kg/injection, schedule: Q04DX003 (ip), vehicle: saline); 101 % of control (endpoint: median survival time, dose: 20.0 mg/kg/injection, schedule: Q04DX003 (ip), vehicle: saline); 98 % of control (endpoint: median survival time, dose: 40.0 mg/kg/injection, schedule: Q04DX003 (ip), vehicle: saline); 98 % of control and 104 % of control (endpoint: median survival time, dose: 80.0 mg/kg/injection, schedule: Q04DX003 (ip), vehicle: saline); 104 % of control (endpoint: median survival time, dose: 160.0 mg/kg/injection, schedule: Q04DX003 (ip), vehicle: saline).
With `CN1C(=O)C=CC1=O` (tested in a mixture with another compound), the T/C reads like this: (endpoint: mean survival time, dose: 25.0 mg/kg/injection, schedule: Q04DX002 (ip), vehicle: saline with Tween-80) 103 % of control; (endpoint: mean survival time, dose: 50.0 mg/kg/injection, schedule: Q04DX002 (ip), vehicle: saline with Tween-80) 91 % of control; under setting [17], 95 % of control; under setting [18], 91 % of control.
For `CCCSCCSCCC`, the T/C was 103 % of control under setting [13], 103 % of control under setting [14] and 117 % of control under setting [15].
As for `CC(=O)/C(C)=C\c1ccccc1`, the T/C was 96 % of control under setting [15]; 92 % of control under setting [1]; 94 % of control under setting [16]; 94 % of control under setting [5]; 98 % of control under setting [19]; 94 % of control under setting [6].
As to `Nc1ncnc2c1c1c(=S)[nH]c(=O)[nH]c1n2C1OC(CO)C(O)C1O` (centres undefined), the T/C reads like this: (endpoint: mean survival time, dose: 25.0 mg/kg/injection, schedule: Q01DX005 (ip), vehicle: distilled water + Tween-80) 101 % of control; (endpoint: mean survival time, dose: 50.0 mg/kg/injection, schedule: Q01DX005 (ip), vehicle: distilled water + Tween-80) 106 % of control; (endpoint: mean survival time, dose: 100.0 mg/kg/injection, schedule: Q01DX005 (ip), vehicle: distilled water + Tween-80) 104 % of control.
